What all share (assay type): functional, cell-based
The subject of one test is MDA-MB-231. Description: Cytotoxicity against human MDA-MB-231 cells assessed as reduction in cell viability after 72 hrs by MTT assay. The following applies: MDA-MB-231, 72 h. (Formazan colour is commonly taken as a measure of viable cells.)
The test system of a further test is MCF7. In words: Cytotoxicity against human MCF7 cells assessed as reduction in cell viability after 72 hrs by MTT assay. The following applies: MCF7, 72 h.
In a further test the test system is PC-3. In words: Cytotoxicity against human PC3 cells assessed as reduction in cell viability after 72 hrs by MTT assay. The conditions noted are these: PC-3, 72 h.
In the next test the test system is HGC-27. Description: Cytotoxicity against human HGC27 cells assessed as reduction in cell viability after 72 hrs by MTT assay. The following applies: HGC-27, 72 h.
For the next test, the system named is MGC-803. Description: Cytotoxicity against human MGC803 cells assessed as reduction in cell viability after 72 hrs by MTT assay. The following applies: MGC-803, 72 h.

SMILES strings stand for the structures.

Regarding `Cc1ccc(Nc2nc(SCc3ccc(C(F)(F)F)cc3)nc3ccccc23)cc1`, the IC50 (usually the concentration that inhibits the measured activity by half) with MDA-MB-231 is > 50 µM; in the test with MCF7 it was > 50 µM; in the test on PC-3, 21.1 µM; with HGC-27 it was 34.6 µM; in the test on MGC-803, 36.1 µM.

For the compound `FC(F)(F)c1ccc(CSc2nc(Nc3ccccc3Cl)c3ccccc3n2)cc1`, the IC50 with MDA-MB-231 was > 50 µM; in the test on MCF7 it was > 50 µM; with PC-3 it was 20.4 µM; with HGC-27, > 50 µM; with MGC-803, > 50 µM.

Take `CCOc1ccccc1Nc1nc(SCc2ccc(C(F)(F)F)cc2)nc2ccccc12`: the IC50 was > 50 µM in the test on MDA-MB-231; > 50 µM with MCF7; 26.2 µM in the test on PC-3; > 50 µM in the test on HGC-27; > 50 µM in the test on MGC-803.

On to `O=[N+]([O-])c1cccc(Nc2nc(SCc3ccc(C(F)(F)F)cc3)nc3ccccc23)c1`, for which the IC50 is 31.5 µM in the test on MDA-MB-231; > 50 µM in the test with MCF7; 13.5 µM in the test with PC-3; > 50 µM with HGC-27; > 50 µM in the test with MGC-803.

As to `FC(F)(F)c1ccc(CSc2nc(Nc3ccc(Cl)cc3)c3ccccc3n2)cc1`, the IC50 in the test on MDA-MB-231 is 15.1 µM; in the test on MCF7 it was 21.5 µM; in the test with PC-3, 7.11 µM; with HGC-27, 14.1 µM; with MGC-803, 16.8 µM.

`COc1cc(Nc2nc(SCc3ccc(C(F)(F)F)cc3)nc3ccccc23)cc(OC)c1OC`: the IC50 is > 50 µM in the test on MDA-MB-231; > 50 µM with MCF7; 7.37 µM in the test on PC-3; 14 µM in the test on HGC-27; 8.24 µM in the test with MGC-803.

Take `O=[N+]([O-])c1ccc(Nc2nc(SCc3ccc(C(F)(F)F)cc3)nc3ccccc23)cc1`: the IC50 was determined as 8.67 µM with MDA-MB-231; 17.9 µM with MCF7; 7.9 µM in the test on PC-3; 16.6 µM with HGC-27; 8.17 µM with MGC-803.

Consider `COc1ccccc1Nc1nc(SCc2ccc(C(F)(F)F)cc2)nc2ccccc12`, for which the IC50 in the test with MDA-MB-231 was > 50 µM; in the test with MCF7, > 50 µM; in the test on PC-3, 14.1 µM; in the test with HGC-27 it was > 50 µM; with MGC-803, > 50 µM.

For `FC(F)(F)c1ccc(CSc2nc(Nc3cccc(Br)c3)c3ccccc3n2)cc1`, the IC50 is 22.1 µM with MDA-MB-231; 25.6 µM in the test on MCF7; 8.68 µM in the test on PC-3; 18.3 µM in the test with HGC-27; 23.7 µM in the test on MGC-803.

Regarding `Fc1ccc(Nc2nc(SCc3ccc(C(F)(F)F)cc3)nc3ccccc23)cc1Cl`, the concentration for half-maximal inhibition (IC50) in the test with MDA-MB-231 was 14.5 µM; in the test with MCF7, 23 µM; with PC-3, 18.6 µM; with HGC-27 it was 14.7 µM; in the test with MGC-803, > 50 µM.

With `COc1ccc(Nc2nc(SCc3ccc(C(F)(F)F)cc3)nc3ccccc23)cc1OC`, the IC50 in the test on MDA-MB-231 is 18.9 µM; in the test on MCF7 it was > 50 µM; with PC-3, 14.1 µM; in the test with HGC-27, 17.9 µM; in the test with MGC-803, 16.3 µM.

As to `COc1cc(Nc2nc(SCc3ccc(C(F)(F)F)cc3)nc3ccccc23)cc(OC)c1`, the IC50 in the test with MDA-MB-231 was 16.1 µM; in the test on MCF7, 6.99 µM; with PC-3, > 50 µM; with HGC-27, > 50 µM; in the test with MGC-803, 8.58 µM.

On to `CCCCCCNc1nc(SCc2ccc(C(F)(F)F)cc2)nc2ccccc12`, for which the IC50 worked out at 20.2 µM with MDA-MB-231; 24.3 µM in the test with MCF7; 19 µM in the test on PC-3; 23.9 µM in the test on HGC-27; 13.1 µM with MGC-803.

With `FC(F)(F)c1ccc(CSc2nc(Nc3cccc(Cl)c3)c3ccccc3n2)cc1`, the IC50 in the test on MDA-MB-231 worked out at 18 µM; with MCF7, 25.1 µM; in the test with PC-3, 13.4 µM; in the test with HGC-27 it was 19.9 µM; in the test with MGC-803, 14.6 µM.

Regarding `CCOc1ccc(Nc2nc(SCc3ccc(C(F)(F)F)cc3)nc3ccccc23)cc1`, the IC50 was 23 µM with MDA-MB-231; > 50 µM in the test on MCF7; 32 µM in the test with PC-3; 33 µM in the test with HGC-27; 37 µM with MGC-803.

Take `FC(F)(F)c1ccc(CSc2nc(Nc3ccccc3C(F)(F)F)c3ccccc3n2)cc1`: the IC50 in the test with MDA-MB-231 was > 50 µM; in the test on MCF7 it was > 50 µM; with PC-3, 34.8 µM; in the test on HGC-27, > 50 µM; in the test on MGC-803, > 50 µM.

In the case of `FC(F)(F)c1ccc(CSc2nc(N3CCCCC3)c3ccccc3n2)cc1`, the IC50 with MDA-MB-231 is 28.4 µM; in the test with MCF7, > 50 µM; in the test on PC-3, 25.5 µM; with HGC-27, > 50 µM; in the test with MGC-803, 18.6 µM.

Take `FC(F)(F)c1ccc(CSc2nc(Nc3cccc(C(F)(F)F)c3)c3ccccc3n2)cc1`: the IC50 amounted to 11.1 µM with MDA-MB-231; 15.3 µM in the test with MCF7; 12.9 µM in the test with PC-3; 11.7 µM in the test on HGC-27; 15.1 µM with MGC-803.

Turning to `FC(F)(F)c1ccc(CSc2nc(Nc3ccccc3)c3ccccc3n2)cc1`, the IC50 was 18.4 µM in the test on MDA-MB-231; 44 µM with MCF7; 20 µM with PC-3; 26.4 µM with HGC-27; 22.2 µM in the test with MGC-803.

Take `Cc1ccccc1Nc1nc(SCc2ccc(C(F)(F)F)cc2)nc2ccccc12`: the IC50 came to 27.1 µM in the test with MDA-MB-231; 37.5 µM in the test with MCF7; 36.9 µM with PC-3; 27.5 µM in the test on HGC-27; 24.4 µM in the test on MGC-803.

As to `COc1ccc(Nc2nc(SCc3ccc(C(F)(F)F)cc3)nc3ccccc23)c(OC)c1`, the IC50 was > 50 µM with MDA-MB-231; > 50 µM in the test with MCF7; 32.5 µM with PC-3; > 50 µM with HGC-27; > 50 µM in the test on MGC-803.

For the compound `CCCCCCCCCCCCNc1nc(SCc2ccc(C(F)(F)F)cc2)nc2ccccc12`, the IC50 with MDA-MB-231 is > 50 µM; in the test on MCF7, > 50 µM; with PC-3, 26 µM; with HGC-27 it was 38.7 µM; in the test with MGC-803, > 50 µM.

In the case of `CCCCCCCCCCCCCCNc1nc(SCc2ccc(C(F)(F)F)cc2)nc2ccccc12`, the IC50 in the test on MDA-MB-231, in the test on MCF7, with PC-3, with HGC-27 and in the test on MGC-803 was > 50 µM in each case.

As for `Fc1ccc(Nc2nc(SCc3ccc(C(F)(F)F)cc3)nc3ccccc23)cc1`, the 50% inhibitory concentration (IC50) in the test on MDA-MB-231 came to 15 µM; with MCF7, 36.3 µM; with PC-3, 7.07 µM; in the test on HGC-27, 19.5 µM; in the test on MGC-803, 9.62 µM.

Turning to `COc1ccc(Nc2nc(SCc3ccc(C(F)(F)F)cc3)nc3ccccc23)cc1`, the half-maximal inhibitory concentration (IC50) in the test on MDA-MB-231 is 15.7 µM; with MCF7, 47.2 µM; in the test on PC-3 it was 16.7 µM; in the test on HGC-27, 23.5 µM; with MGC-803 it was 13.8 µM.

Regarding `CCCCCCCCNc1nc(SCc2ccc(C(F)(F)F)cc2)nc2ccccc12`, the IC50 in the test on MDA-MB-231 was determined as 22.3 µM; in the test on MCF7, 26.1 µM; in the test with PC-3 it was 10.5 µM; in the test with HGC-27 it was 13.4 µM; with MGC-803 it was 12.6 µM.

(Values after ChEMBL document CHEMBL4393664, “2,4-Disubstituted quinazolines targeting breast cancer cells via EGFR-PI3K” (Eur J Med Chem, 2019).)
